From ChEMBL document CHEMBL1130850, “Asymmetric synthesis and anti-HIV activity of L-carbocyclic 2',3'-didehydro-2',3'-dideoxyadenosine” (Bioorg Med Chem Lett, 1998)

How the values were obtained:
[1] = Compound was evaluated for its cytotoxicity against peripheral blood mononuclear (PBM) cells.; format: functional, cell-based; conditions: Homo sapiens
Vero = assay: Compound was evaluated for its cytotoxicity against vero cells.; format: functional, cell-based; conditions: Chlorocebus sabaeus
CCRF-CEM [2] = assay: Compound was evaluated for its cytotoxicity against CEM cells.; format: functional, cell-based; conditions: Homo sapiens
[3] = Compound was evaluated for its anti-HIV activity in vitro in peripheral blood mononuclear (PBM) cells; format: functional; conditions: Homo sapiens
CCRF-CEM [4] = assay: Compound was evaluated for its cytotoxicity expressed as IC50 against CEM cells.; format: functional, cell-based; conditions: Homo sapiens

Structure (SMILES) | IC50 [1] | IC50 (Vero) | IC50 (CCRF-CEM [2]) | EC50 [3] | IC50 (CCRF-CEM [4]) | EC90 [3]
OCC1C=CC(n2cnc3c(S)ncnc32)C1 (stereo unspecified) | > 100 µM | > 100 µM | > 100 µM | > 100 µM |  | 
Nc1ncnc2c1ncn2C1C=CC(CO)C1 (stereo unspecified) | > 100 µM | > 100 µM |  | 2.4 µM | > 100 µM | 11.7 µM
Cc1cn([C@H]2C[C@H](N=[N+]=[N-])[C@@H](CO)O2)c(=O)[nH]c1=O [ZIDOVUDINE] | > 100 µM |  |  | 0.004 µM |  | 
